Assay results taken from patent US5011839A, “3(2H)pyridazinones for antagonistic agent against srs-a” (Nissan Chemical Industries Ltd., priority 1988, dated 1991).

system: LTD4 (contractile responses of guinea-pig trachea); experiment: LTD4 antagonism in guinea-pig trachea (in vitro test, isolated tracheal spiral strip); type: cell-based; conditions: Cavia porcellus, 0.5 h; test compound concentration 10^6 g/ml [sic], added 30 min prior to LTD4; isolated male guinea-pig trachea; vs paired control
Experimental: LTD4 antagonism in guinea-pig trachea
Antagonism for LTD4 was determined in isolated male guinea-pig (300-400 g) trachea prepared as spiral strip. Tracheal preparations were suspended under 1 g tension in 10 ml organ baths containing 5 μM of indomethacin and they were incubated for 1 hour prior to used. Contractile responses to LTD4 (2×10^8 g/ml) were obtained after the maximal response to histamine (10^4 M). Test compounds dissolved in 100% dimethyl sulfoxide were added to the organ baths (final concentration of 10^6 g/ml) 30 min prior to LTD4 addition, and then contractile responses to LTD4 were compared with those of control which was obtained from a paired trachea in the absence of test compounds. LTD-induced contractions were expressed as a percentage of the maximal response to histamine. The antagonism was determined as follows:
Antagonism (%)=(1.0-% contraction in test/% contraction in […]

SMILES | inhibition at 1 µg/mL [%]
CCn1ncc(NCc2cccc3ccccc23)c(Br)c1=O [compound 23] | 57
CCCc1c(OCC(O)COc2ccc3c(=O)cc(C(=O)O)oc3c2CCC)ccc(C(C)=O)c1O (centres unmarked) [FPL-55712, reference compound] | 94
CCn1nc(OC)c(NCc2ccc(OC)c3ccccc23)c(Cl)c1=O [compound 38] | 43
CCn1ncc(NCc2ccc3ccccc3c2)c(Br)c1=O [compound 24] | 67
COc1ccc(CNc2cn[nH]c(=O)c2Br)c2ccccc12 [Compound No. 16] | 74
CCCCOc1n[nH]c(=O)c(Cl)c1NCc1ccc(Cl)nc1 [compound 57] | 69
CCn1ncc(NCc2c(OC)ccc3ccccc23)c(Br)c1=O [compound 25] | 50
COc1ccc(CNc2cn[nH]c(=O)c2Cl)c2ccccc12 [Compound No. 5, 4-Chloro-5-(4-methoxy-1-naphthylmethylamino)-3(2H)pyridazinone] | 79
CCOc1n[nH]c(=O)c(Cl)c1NCc1ccc(OC)c2ccccc12 [Compound No. 31] | 95
COc1ccc(CNc2c(OC(C)C)n[nH]c(=O)c2Cl)c2ccccc12 [Compound No. 32, 4-Chloro-5-(4-methoxy-1-naphthylmethylamino)-6-i-propoxy-3(2H)pyridazinone] | 50
CCn1ncc(NCc2ccco2)c(Br)c1=O [Compound No. 22, 2Ethyl-4-bromo-5-(2-furanylmethylamino)-3(2H)pyridazinone] | 39
CCCCCCOc1n[nH]c(=O)c(Cl)c1NCc1cccnc1 [compound 60] | 96
COc1ccc(CNc2c(Cl)n[nH]c(=O)c2Cl)c2ccccc12 [Compound No. 34, 4,6-Dichloro-5-(4-methoxy-1-naphthylmethylamino)-3(2H)pyridazinone] | 99
COc1ccc(CNc2c([N+](=O)[O-])n[nH]c(=O)c2Cl)c2ccccc12 [Compound No. 30, 4-Chloro-5-(4-methoxy-1-naphthylmethylamino)-6-nitro-3(2H)pyridazinone] | 50
